Data: the NIST ThermoML archive (doi:10.1021/je049762q)
± gives the expanded uncertainty stated by the source.

Assay: molar heat capacity at constant pressure
Settings: 101.33 kPa, Crystal

In the case of `Brc1ccc(Br)cc1` [1,4-dibromobenzene], the “molar heat capacity at constant pressure” value (5.27 K) is reported as 1.01 ± 0.04 J/K/mol, the “molar heat capacity at constant pressure” value (5.8 K) is reported as 1.18 ± 0.04 J/K/mol and the “molar heat capacity at constant pressure” value (6.45 K) is reported as 1.36 ± 0.05 J/K/mol. The “molar heat capacity at constant pressure” value (6.5 K) was 1.38 ± 0.05 J/K/mol, the “molar heat capacity at constant pressure” value (7.46 K) was 2.31 ± 0.06 J/K/mol and the “molar heat capacity at constant pressure” value (7.64 K) was 2.66 ± 0.07 J/K/mol. The “molar heat capacity at constant pressure” value (7.71 K) was 2.81 ± 0.07 J/K/mol, the “molar heat capacity at constant pressure” value (8.52 K) was 3.67 ± 0.08 J/K/mol and the “molar heat capacity at constant pressure” value (8.77 K) was 3.87 ± 0.08 J/K/mol. For the same compound, the “molar heat capacity at constant pressure” value (9.03 K) was 4.08 ± 0.09 J/K/mol, the “molar heat capacity at constant pressure” value (9.52 K) was 4.41 ± 0.09 J/K/mol and the “molar heat capacity at constant pressure” value (10 K) was 5.01 ± 0.1 J/K/mol. The “molar heat capacity at constant pressure” value (10.07 K) was 5.11 ± 0.1 J/K/mol, the “molar heat capacity at constant pressure” value (10.26 K) was 5.43 ± 0.11 J/K/mol and the “molar heat capacity at constant pressure” value (10.6 K) was 5.83 ± 0.11 J/K/mol. The “molar heat capacity at constant pressure” value (11.8 K) was 6.63 ± 0.12 J/K/mol, the “molar heat capacity at constant pressure” value (12.15 K) was 7.18 ± 0.13 J/K/mol and the “molar heat capacity at constant pressure” value (12.41 K) was 7.69 ± 0.13 J/K/mol. The “molar heat capacity at constant pressure” value (12.47 K) was 7.8 ± 0.14 J/K/mol, the “molar heat capacity at constant pressure” value (13.6 K) was 9.64 ± 0.16 J/K/mol and the “molar heat capacity at constant pressure” value (14.05 K) was 10.68 ± 0.17 J/K/mol. For the same compound, the “molar heat capacity at constant pressure” value (14.2 K) was 10.78 ± 0.17 J/K/mol, the “molar heat capacity at constant pressure” value (15 K) was 12.33 ± 0.19 J/K/mol and the “molar heat capacity at constant pressure” value (15.55 K) was 13.29 ± 0.2 J/K/mol. The “molar heat capacity at constant pressure” value (15.57 K) was 13.3 ± 0.2 J/K/mol, the “molar heat capacity at constant pressure” value (15.9 K) was 13.84 ± 0.2 J/K/mol and the “molar heat capacity at constant pressure” value (16.68 K) was 14.94 ± 0.21 J/K/mol. The “molar heat capacity at constant pressure” value (17.46 K) was 16.03 ± 0.22 J/K/mol, the “molar heat capacity at constant pressure” value (17.68 K) was 16.47 ± 0.22 J/K/mol and the “molar heat capacity at constant pressure” value (17.94 K) was 16.83 ± 0.23 J/K/mol. The “molar heat capacity at constant pressure” value (18.59 K) was 17.79 ± 0.23 J/K/mol, the “molar heat capacity at constant pressure” value (19.73 K) was 19.51 ± 0.24 J/K/mol and the “molar heat capacity at constant pressure” value (20 K) was 19.9 ± 0.24 J/K/mol. The “molar heat capacity at constant pressure” value (20.25 K) was 20.25 ± 0.25 J/K/mol, the “molar heat capacity at constant pressure” value (22.16 K) was 22.72 ± 0.25 J/K/mol and the “molar heat capacity at constant pressure” value (22.64 K) was 23.37 ± 0.26 J/K/mol. The “molar heat capacity at constant pressure” value (23.84 K) was 25.08 ± 0.26 J/K/mol, the “molar heat capacity at constant pressure” value (24.7 K) was 25.82 ± 0.26 J/K/mol and the “molar heat capacity at constant pressure” value (25 K) was 26.17 ± 0.26 J/K/mol. For the same compound, the “molar heat capacity at constant pressure” value (26.55 K) was 28 ± 0.25 J/K/mol, the “molar heat capacity at constant pressure” value (27.15 K) was 28.54 ± 0.25 J/K/mol and the “molar heat capacity at constant pressure” value (28.82 K) was 30.45 ± 0.24 J/K/mol. The “molar heat capacity at constant pressure” value (29.32 K) was 30.8 ± 0.24 J/K/mol, the “molar heat capacity at constant pressure” value (30 K) was 31.55 ± 0.21 J/K/mol and the “molar heat capacity at constant pressure” value (31.01 K) was 32.68 ± 0.21 J/K/mol. The “molar heat capacity at constant pressure” value (31.27 K) was 32.7 ± 0.21 J/K/mol, the “molar heat capacity at constant pressure” value (33.06 K) was 34.41 ± 0.22 J/K/mol and the “molar heat capacity at constant pressure” value (33.29 K) was 34.82 ± 0.22 J/K/mol. The “molar heat capacity at constant pressure” value (35.63 K) was 36.98 ± 0.23 J/K/mol, the “molar heat capacity at constant pressure” value (38.01 K) was 38.95 ± 0.24 J/K/mol and the “molar heat capacity at constant pressure” value (40 K) was 40.38 ± 0.24 J/K/mol. For the same compound, the “molar heat capacity at constant pressure” value (40.43 K) was 40.7 ± 0.24 J/K/mol, the “molar heat capacity at constant pressure” value (42.9 K) was 42.52 ± 0.25 J/K/mol and the “molar heat capacity at constant pressure” value (45.4 K) was 44.29 ± 0.26 J/K/mol. For the same compound, the “molar heat capacity at constant pressure” value (47.94 K) was 45.99 ± 0.26 J/K/mol, the “molar heat capacity at constant pressure” value (50 K) was 47.3 ± 0.27 J/K/mol and the “molar heat capacity at constant pressure” value (50.51 K) was 47.61 ± 0.27 J/K/mol. For the same compound, the “molar heat capacity at constant pressure” value (53.12 K) was 49.13 ± 0.28 J/K/mol, the “molar heat capacity at constant pressure” value (55.75 K) was 50.72 ± 0.28 J/K/mol and the “molar heat capacity at constant pressure” value (58.41 K) was 52.22 ± 0.29 J/K/mol. The “molar heat capacity at constant pressure” value (60 K) was 53.1 ± 0.29 J/K/mol, the “molar heat capacity at constant pressure” value (61.09 K) was 53.7 ± 0.3 J/K/mol and the “molar heat capacity at constant pressure” value (63.8 K) was 55.15 ± 0.3 J/K/mol. For the same compound, the “molar heat capacity at constant pressure” value (66.54 K) was 56.56 ± 0.31 J/K/mol, the “molar heat capacity at constant pressure” value (69.3 K) was 57.98 ± 0.31 J/K/mol and the “molar heat capacity at constant pressure” value (70 K) was 58.33 ± 0.31 J/K/mol. For the same compound, the “molar heat capacity at constant pressure” value (72.07 K) was 59.33 ± 0.32 J/K/mol, the “molar heat capacity at constant pressure” value (74.86 K) was 60.72 ± 0.32 J/K/mol and the “molar heat capacity at constant pressure” value (77.68 K) was 62.03 ± 0.33 J/K/mol. For the same compound, the “molar heat capacity at constant pressure” value (80 K) was 63.11 ± 0.33 J/K/mol, the “molar heat capacity at constant pressure” value (80.51 K) was 63.35 ± 0.33 J/K/mol and the “molar heat capacity at constant pressure” value (83.36 K) was 64.67 ± 0.34 J/K/mol. For the same compound, the “molar heat capacity at constant pressure” value (86.22 K) was 65.91 ± 0.34 J/K/mol, the “molar heat capacity at constant pressure” value (89.08 K) was 67.21 ± 0.35 J/K/mol and the “molar heat capacity at constant pressure” value (89.28 K) was 67.47 ± 0.35 J/K/mol. The “molar heat capacity at constant pressure” value (90 K) was 67.83 ± 0.54 J/K/mol, the “molar heat capacity at constant pressure” value (91.9 K) was 68.39 ± 0.54 J/K/mol and the “molar heat capacity at constant pressure” value (92.15 K) was 68.67 ± 0.54 J/K/mol. For the same compound, the “molar heat capacity at constant pressure” value (94.65 K) was 69.5 ± 0.54 J/K/mol, the “molar heat capacity at constant pressure” value (95.04 K) was 69.84 ± 0.54 J/K/mol and the “molar heat capacity at constant pressure” value (97.35 K) was 70.59 ± 0.54 J/K/mol. For the same compound, the “molar heat capacity at constant pressure” value (97.94 K) was 71.11 ± 0.54 J/K/mol, the “molar heat capacity at constant pressure” value (100 K) was 71.7 ± 0.54 J/K/mol and the “molar heat capacity at constant pressure” value (100.85 K) was 72.3 ± 0.54 J/K/mol. For the same compound, the “molar heat capacity at constant pressure” value (102.59 K) was 72.97 ± 0.55 J/K/mol, the “molar heat capacity at constant pressure” value (103.77 K) was 73.61 ± 0.55 J/K/mol and the “molar heat capacity at constant pressure” value (105.15 K) was 73.98 ± 0.55 J/K/mol. The “molar heat capacity at constant pressure” value (106.7 K) was 74.69 ± 0.55 J/K/mol, the “molar heat capacity at constant pressure” value (109.64 K) was 75.86 ± 0.55 J/K/mol and the “molar heat capacity at constant pressure” value (110 K) was 76 ± 0.55 J/K/mol. For the same compound, the “molar heat capacity at constant pressure” value (112.58 K) was 77.06 ± 0.55 J/K/mol, the “molar heat capacity at constant pressure” value (115.54 K) was 78.22 ± 0.56 J/K/mol and the “molar heat capacity at constant pressure” value (118.5 K) was 79.39 ± 0.56 J/K/mol. The “molar heat capacity at constant pressure” value (120 K) was 79.98 ± 0.56 J/K/mol, the “molar heat capacity at constant pressure” value (121.46 K) was 80.54 ± 0.56 J/K/mol and the “molar heat capacity at constant pressure” value (124.44 K) was 81.71 ± 0.56 J/K/mol. The “molar heat capacity at constant pressure” value (127.42 K) was 82.85 ± 0.57 J/K/mol, the “molar heat capacity at constant pressure” value (130 K) was 83.85 ± 0.57 J/K/mol and the “molar heat capacity at constant pressure” value (130.4 K) was 84.01 ± 0.57 J/K/mol. The “molar heat capacity at constant pressure” value (133.39 K) was 85.14 ± 0.57 J/K/mol, the “molar heat capacity at constant pressure” value (136.39 K) was 86.25 ± 0.57 J/K/mol and the “molar heat capacity at constant pressure” value (139.39 K) was 87.37 ± 0.57 J/K/mol. For the same compound, the “molar heat capacity at constant pressure” value (140 K) was 87.59 ± 0.58 J/K/mol, the “molar heat capacity at constant pressure” value (142.39 K) was 88.47 ± 0.58 J/K/mol and the “molar heat capacity at constant pressure” value (145.4 K) was 89.57 ± 0.58 J/K/mol. For the same compound, the “molar heat capacity at constant pressure” value (148.41 K) was 90.66 ± 0.58 J/K/mol, the “molar heat capacity at constant pressure” value (150 K) was 91.25 ± 0.58 J/K/mol and the “molar heat capacity at constant pressure” value (151.43 K) was 91.77 ± 0.58 J/K/mol. For the same compound, the “molar heat capacity at constant pressure” value (154.45 K) was 92.84 ± 0.59 J/K/mol.
